Values of other authors, collected in patent US12552772B2, “2-pyrazole anilines and related analogs for inhibiting YAP/TAZ-TEAD” (KATHOLIEKE UNIVERSITEIT LEUVEN, priority 2021, dated 2026).

Key:
YAP = conditions: mouse models of YAP-driven tumorigenesis; cited from earlier work
[1] = tested on: NF2 mutant mesothelioma cell lines; conditions: NF2 mutant mesothelioma cell lines (but not WT mesothelioma); cited from earlier work

Substance: verteporfin
- suppression of the oncogenic activity of YAP (YAP): significantly suppressed the oncogenic activity of YAP
- sensitivity of YAP-TEAD transcription [1]: sensitive
- sensitivity of viability [1]: sensitive
